Assay results from patent US12378231B2, “Small molecules as monoacylglycerol lipase (MAGL) inhibitors, compositions and use thereof” (APOGEE PHARMACEUTICALS, INC., priority 2023, dated 2025).

What was measured:
human recombinant MAGL = human recombinant MAGL (Homo sapiens (Human), UniProt Q99685); assay: In vitro inhibition of human recombinant MAGL activity (Cayman inhibitor screening kit, 4-nitrophenylacetate hydrolysis); format: biochemical; conditions: human recombinant MAGL; read-out: Inhibition on MAGL activity (IC50)
Sequence of human recombinant MAGL (Q99685 whole entry): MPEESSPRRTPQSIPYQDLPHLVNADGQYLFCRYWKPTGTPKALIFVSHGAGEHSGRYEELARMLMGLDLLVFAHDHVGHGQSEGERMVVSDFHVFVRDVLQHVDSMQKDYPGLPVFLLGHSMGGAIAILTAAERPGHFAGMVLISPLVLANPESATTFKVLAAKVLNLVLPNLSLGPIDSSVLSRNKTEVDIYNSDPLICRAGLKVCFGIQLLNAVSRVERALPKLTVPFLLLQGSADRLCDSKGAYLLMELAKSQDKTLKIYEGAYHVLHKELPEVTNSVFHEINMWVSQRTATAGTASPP
Excerpt: The inhibitory effect of the synthetic chemicals on activity of human recombinant MAGL was studied using commercial inhibitor screening kit (Cayman Chemical). […] The absorbance of the yellow product can be analyzed using the plate reader. […]

human recombinant FAAH = human recombinant FAAH (Homo sapiens (Human), UniProt O00519); assay: In vitro inhibition of human recombinant FAAH activity (Cayman FAAH inhibitor screening kit, AMC arachidonoyl amide hydrolysis); format: biochemical
Sequence of human recombinant FAAH (O00519 whole entry): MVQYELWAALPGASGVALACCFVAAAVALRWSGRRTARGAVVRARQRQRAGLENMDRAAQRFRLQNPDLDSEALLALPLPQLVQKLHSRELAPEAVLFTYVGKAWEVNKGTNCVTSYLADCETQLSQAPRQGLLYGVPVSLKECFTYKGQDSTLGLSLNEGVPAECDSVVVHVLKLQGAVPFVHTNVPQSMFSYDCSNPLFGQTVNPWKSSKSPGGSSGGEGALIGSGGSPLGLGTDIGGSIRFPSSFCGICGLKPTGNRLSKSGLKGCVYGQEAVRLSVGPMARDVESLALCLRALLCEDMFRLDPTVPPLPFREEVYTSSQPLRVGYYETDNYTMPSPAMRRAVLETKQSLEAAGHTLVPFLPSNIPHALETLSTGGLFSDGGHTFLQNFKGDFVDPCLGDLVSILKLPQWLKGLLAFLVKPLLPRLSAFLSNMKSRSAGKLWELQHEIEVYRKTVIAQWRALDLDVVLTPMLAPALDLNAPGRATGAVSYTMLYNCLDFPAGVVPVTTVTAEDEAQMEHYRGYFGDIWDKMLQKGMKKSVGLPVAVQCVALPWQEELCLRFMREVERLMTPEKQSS
Excerpt: In brief, FAAH hydrolyzes AMC arachidonoyl amide resulting in the release of the fluorescent product, while the inhibitor will inhibit the FAAH activity and thus reduce the fluorescent signal.

Row | SMILES | IC50 (human recombinant MAGL) [µM] | IC50 (human recombinant FAAH) [µM]
1 | C=COc1ccc(N(c2ccc(F)cc2)C2CCN(C(=O)n3nnc4ccc(C#N)cc43)CC2)cc1 [Example 76, 1-(4-((4-fluorophenyl)(4-(vinyloxy)phenyl)amino)piperidine-1-carbonyl)-1H-benzo[d][1,2,3]triazole-6-carbonitrile] | 0.001 to 0.01 | 0.1 to 1
2 | C=COc1ccc(N(c2ccc(F)cc2)C2CCN(C(=O)n3nnc4cc(C#N)ccc43)CC2)cc1 [Example 77, 1-(4-((4-fluorophenyl)(4-(vinyloxy)phenyl)amino)piperidine-1-carbonyl)-1H-benzo[d][1,2,3]triazole-5-carbonitrile] | 0.001 to 0.01 | 0.1 to 1
3 | N#Cc1ncn(C(=O)N2CCC3(CC2)CCN(C(c2ccc4c(c2)COCO4)c2ccc4c(c2)COCO4)CC3)n1 [Example 79, 1-(9-(bis(4H-benzo[d][1,3]dioxin-6-yl)methyl)-3,9-diazaspiro[5.5]undecane-3-carbonyl)-1H-1,2,4-triazole-3-carbonitrile] | 0.001 to 0.01 | ~50
4 | N#Cc1ncn(C(=O)N2CC3(C2)CN(C(c2ccc4c(c2)COCO4)c2ccc4c(c2)COCO4)C3)n1 [Example 80, 1-(6-(bis(4H-benzo[d][1,3]dioxin-6-yl)methyl)-2,6-diazaspiro[3.3]heptane-2-carbonyl)-1H-1,2,4-triazole-3-carbonitrile] | 0.01 to 0.1 | 10 to 50
5 | N#Cc1ncn(C(=O)N2CC3CN(C(c4ccc5c(c4)COCO5)c4ccc5c(c4)COCO5)CC3C2)n1 (stereo not drawn) [Example 81, meso-1-(5-(bis(4H-benzo[d][1,3]dioxin-6-yl)methyl)octahydropyrrolo[3,4-c]pyrrole-2-carbonyl)-1H-1,2,4-triazole-3-carbonitrile] | 0.001 to 0.01 | 1 to 10
6 | N#Cc1ncn(C(=O)N2CC3(CCN(C(c4ccc5c(c4)COCO5)c4ccc5c(c4)COCO5)CC3)C2)n1 [Example 82, 1-(7-(bis(4H-benzo[d][1,3]dioxin-6-yl)methyl)-2,7-diazaspiro[3.5]nonane-2-carbonyl)-1H-1,2,4-triazole-3-carbonitrile] | 0.01 to 0.1 | > 50
7 | N#Cc1ncn(C(=O)N2CCC3(CC2)CN(C(c2ccc4c(c2)COCO4)c2ccc4c(c2)COCO4)C3)n1 [Example 83, 1-(2-(bis(4H-benzo[d][1,3]dioxin-6-yl)methyl)-2,7-diazaspiro[3.5]nonane-7-carbonyl)-1H-1,2,4-triazole-3-carbonitrile] | 0.001 to 0.01 | 10 to 50
8 | N#Cc1ncn(C(=O)N2CC3(CCN(C(c4ccc5c(c4)COCO5)c4ccc5c(c4)COCO5)C3)C2)n1 [Example 84, 1-(6-(bis(4H-benzo[d][1,3]dioxin-6-yl)methyl)-2,6-diazaspiro[3.4]octane-2-carbonyl)-1H-1,2,4-triazole-3-carbonitrile] | 0.001 to 0.01 | 1 to 10
9 | N#Cc1ncn(C(=O)N2CCC3(CCN(C(c4ccc5c(c4)COCO5)c4ccc5c(c4)COCO5)C3)C2)n1 (stereo not drawn) [Example 85, 1-(7-(bis(4H-benzo[d][1,3]dioxin-6-yl)methyl)-2,7-diazaspiro[4.4]nonane-2-carbonyl)-1H-1,2,4-triazole-3-carbonitrile] | 0.01 to 0.1 | 1 to 10
10 | COc1ccc(C(c2ccc(F)cc2)N2CCN(C(=O)n3nnc4cc(C#N)ccc43)CC2)cc1 (stereo not drawn) [Example 87, 1-(4-((4-fluorophenyl)(4-methoxyphenyl)methyl)piperazine-1-carbonyl)-1H-benzo[d][1,2,3]triazole-5-carbonitrile] | 0.001 to 0.01 | 0.1 to 10
11 | COc1ccc(C(c2ccc(OC)cc2)N2CCN(C(=O)n3nnc4ccc(C#N)cc43)CC2)cc1 [Example 88, 1-(4-(bis(4-methoxyphenyl)methyl)piperazine-1-carbonyl)-1H-benzo[d][1,2,3]triazole-6-carbonitrile] | 0.001 to 0.01 | ~50
12 | COc1ccc(C(c2ccc(OC)cc2)N2CCN(C(=O)n3nnc4cc(C#N)ccc43)CC2)cc1 [Example 89, 1-(4-(bis(4-methoxyphenyl)methyl)piperazine-1-carbonyl)-1H-benzo[d][1,2,3]triazole-5-carbonitrile] | 0.01 to 0.1 | 1 to 10
13 | COc1ccc(C(c2ccc(OC)cc2)N2CCN(C(=O)n3cnc(C#N)n3)CC2)cc1 [Example 90, 1-(4-(bis(4-methoxyphenyl)methyl)piperazine-1-carbonyl)-1H-1,2,4-triazole-3-carbonitrile] | 0.001 to 0.01 | 1 to 10
14 | N#Cc1ncn(C(=O)N2CCN(C(c3ccc4c(c3)OCCO4)c3ccc4c(c3)OCCO4)CC2)n1 [Example 92, 1-(4-(bis(2,3-dihydrobenzo[b][1,4]dioxin-6-yl)methyl)piperazine-1-carbonyl)-1H-1,2,4-triazole-3-carbonitrile] | 0.001 to 0.01 | ~10
15 | COc1ccc(C(c2ccc(OC)c(OC)c2)N2CCN(C(=O)n3nnc4ccc(C#N)cc43)CC2)cc1OC [Example 93, 1-(4-(bis(3,4-dimethoxyphenyl)methyl)piperazine-1-carbonyl)-1H-benzo[d][1,2,3]triazole-6-carbonitrile] | 0.01 to 0.1 | > 50
16 | COc1ccc(C(c2ccc(OC)c(OC)c2)N2CCN(C(=O)n3nnc4cc(C#N)ccc43)CC2)cc1OC [Example 94, 1-(4-(bis(3,4-dimethoxyphenyl)methyl)piperazine-1-carbonyl)-1H-benzo[d][1,2,3]triazole-5-carbonitrile] | 0.01 to 0.1 | > 50
17 | COc1cccc(C(c2cccc(OC)c2)N2CCN(C(=O)n3nnc4ccc(C#N)cc43)CC2)c1 [Example 95, 1-(4-(bis(3-methoxyphenyl)methyl)piperazine-1-carbonyl)-1H-benzo[d][1,2,3]triazole-6-carbonitrile] | 0.001 to 0.01 | 10 to 50
18 | COc1cccc(C(c2cccc(OC)c2)N2CCN(C(=O)n3nnc4cc(C#N)ccc43)CC2)c1 [Example 96, 1-(4-(bis(3-methoxyphenyl)methyl)piperazine-1-carbonyl)-1H-benzo[d][1,2,3]triazole-5-carbonitrile] | 0.001 to 0.01 | 1 to 10
19 | COc1cccc(C(c2cccc(OC)c2)N2CCN(C(=O)n3cnc(C#N)n3)CC2)c1 [Example 97, 1-(4-(bis(3-methoxyphenyl)methyl)piperazine-1-carbonyl)-1H-1,2,4-triazole-3-carbonitrile] | 0.001 to 0.01 | 1 to 10
20 | N#Cc1ccc2nnn(C(=O)N3CCN(C(c4ccc5c(c4)OC(F)(F)O5)c4ccc5c(c4)OC(F)(F)O5)CC3)c2c1 [Example 98, 1-(4-(bis(2,2-difluorobenzo[d][1,3]dioxol-5-yl)methyl)piperazine-1-carbonyl)-1H-benzo[d][1,2,3]triazole-6-carbonitrile] | 0.001 to 0.01 | > 50
21 | N#Cc1ccc2c(c1)nnn2C(=O)N1CCN(C(c2ccc3c(c2)OC(F)(F)O3)c2ccc3c(c2)OC(F)(F)O3)CC1 [Example 99, 1-(4-(bis(2,2-difluorobenzo[d][1,3]dioxol-5-yl)methyl)piperazine-1-carbonyl)-1H-benzo[d][1,2,3]triazole-5-carbonitrile] | 0.001 to 0.01 | > 50
22 | N#Cc1ccc(C(c2ccc(C#N)cc2)N2CCN(C(=O)n3nnc4ccc(C#N)cc43)CC2)cc1 [Example 100, 4,4′-((4-(6-cyano-1H-benzo[d][1,2,3]triazole-1-carbonyl)piperazin-1-yl)methylene)dibenzonitrile] | 0.001 to 0.01 | > 50
23 | N#Cc1ccc(C(c2ccc(C#N)cc2)N2CCN(C(=O)n3nnc4cc(C#N)ccc43)CC2)cc1 [Example 101, 4,4′-((4-(5-cyano-1H-benzo[d][1,2,3]triazole-1-carbonyl)piperazin-1-yl)methylene)dibenzonitrile] | 0.001 to 0.01 | > 50
24 | N#Cc1ccc(C(c2ccc(C#N)cc2)N2CCN(C(=O)n3cnc(C#N)n3)CC2)cc1 [Example 102, 4,4′-((4-(3-cyano-1H-1,2,4-triazole-1-carbonyl)piperazin-1-yl)methylene)dibenzonitrile] | 0.001 to 0.01 | 1 to 10
25 | COc1ccc(C(c2cccnc2)N2CCN(C(=O)n3cnc(C#N)n3)CC2)cc1 (stereo not drawn) [Example 104, 1-(4-((4-methoxyphenyl)(pyridin-3-yl)methyl)piperazine-1-carbonyl)-1H-1,2,4-triazole-3-carbonitrile] | 0.001 to 0.01 | 1 to 10
26 | N#Cc1ncn(C(=O)N2CCN(C(c3ccc4c(c3)CCO4)c3ccc4c(c3)CCO4)CC2)n1 [Example 107, 1-(4-(bis(2,3-dihydrobenzofuran-5-yl)methyl)piperazine-1-carbonyl)-1H-1,2,4-triazole-3-carbonitrile] | 0.001 to 0.01 | 1 to 10
27 | O=C(N1CCN(C(c2ccc3c(c2)CCO3)c2ccc3c(c2)CCO3)CC1)n1nnc2ccccc21 [Example 108, (1H-benzo[d][1,2,3]triazol-1-yl)(4-(bis(2,3-dihydrobenzofuran-5-yl)methyl)piperazin-1-yl)methanone] | 0.001 to 0.01 | ~10
28 | O=C(N1CCN(C(c2ccc3ncccc3c2)c2ccc3ncccc3c2)CC1)n1nnc2ccccc21 [Example 109, (1H-benzo[d][1,2,3]triazol-1-yl)(4-(di(quinolin-6-yl)methyl)piperazin-1-yl)methanone] | 0.01 to 0.1 | ~50
29 | Cn1ncc2cc(C(c3ccc4c(cnn4C)c3)N3CCN(C(=O)n4cnc(C#N)n4)CC3)ccc21 [Example 111, 1-(4-(bis(1-methyl-1H-indazol-5-yl)methyl)piperazine-1-carbonyl)-1H-1,2,4-triazole-3-carbonitrile] | 0.001 to 0.01 | ~10
30 | Cn1ncc2cc(C(c3ccc4c(cnn4C)c3)N3CCN(C(=O)n4nnc5ccccc54)CC3)ccc21 [Example 112, (1H-benzo[d][1,2,3]triazol-1-yl)(4-(bis(1-methyl-1H-indazol-5-yl)methyl)piperazin-1-yl)methanone] | 0.01 to 0.1 | ~50
